From patent publication US7332495B2 (priority 2002, dated 2008)

Test system: Mice
Assay: Spontaneous activities of mice after oral IV-12
Format: in vivo
Conditions: p.o. 15 or 30 mg/kg

Nc1ccc(CN2CCN(CC(=O)c3ccccc3)CC2)cc1 [IV-12, N^1-(4-aminobenzyl)-N^4-phenacyl piperazine]
Behaviour / spontaneous activities: quiet and suppressed from spontaneous activities
